From paper PMC9873282, “Design, synthesis and evaluation of quinoline-O-carbamate derivatives as multifunctional agents for the treatment of Alzheimer’s disease” (Journal of Enzyme Inhibition and Medicinal Chemistry, 2023) come the findings set out here.

One data set concerns the target T1, eeAChE (Electrophorus electricus, UniProt O42275).
T1 construct: eeAChE, from the electric eel; purchased Sigma Aldrich; host or cells: electric eel (natural source)
Nature of the data set: biochemical. Details: species or system electric eel. The settings on record: AChE from electric eel; read-out: IC50 ± SD eeAChE. The method, then: The inhibitory activities of the synthesised compounds against eeAChE (from electric eel) and eqBuChE (from equine serum) were tested by the modified Ellman’s method[26]^,[27]. […] The determination of AChE and BuChE inhibitory potency of the synthesised compounds were evaluated by Ellman assay, the detailed procedure referred to our previous work[26]^,[27].

In another data set the test system is BV-2 cells. Nature of the data set: Cytotoxicity on BV-2 cells (CCK8 assay). Conditions: compounds at 2 µM. The format is cell-based. The method, then:
Firstly, the cytotoxicity of compounds 3a, 3c, 3e, 3f, 3k, 3m and 3n were tested using CCK8 assay.
BV-2 cells were cultured in DMEM containing 10% foetal bovine serum, 100 U/mL penicillin, 100 U/mL streptomycin, and 1% nonessential amino acid at 37 °C with 5% CO2.
BV-2 cells in logarithmic growth stage were digested and centrifuged, and then resuspended in DMEM medium containing 1% penicillin-streptomycin and 10% foetal bovine serum. The cells was adjusted to 1.2 × 10^4 cells/well, and then seeded evenly in 96-well cell culture plates. The cells were incubated for 36 h at 37 °C with 5% CO2. After incubation, the cells were added to different concentrations (10 and 2 µM) of tested compounds, and incubated for 24 h at 37 °C with 5% CO2. Then, 10 µL CCK-8 solution was added to each well, and incubated for another 1 h at 37 °C with 5% CO2. The OD values were tested at […]. The cell viability (%) = {(ODdrug−ODblank)}/{(ODcontrol−ODblank)} × 100%.
A general note: Formazan colour is commonly taken as a measure of viable cells.

Another data set addresses T2, hAChE (Homo sapiens, UniProt P22303).
T2 construct: hAChE, from human erythrocytes AChE; purchased Sigma Aldrich; host or cells: human erythrocytes (natural source)
Nature of the data set: hAChE reversibility of inhibition (recovery after dilution). It is filed as biochemical.

Data set [1] has as its system Aβ25-35-induced PC12 cells injury. The experiment in a line: Neuroprotective effect on Aβ25-35-induced PC12 cells injury (CCK-8). The format is cell-based. The settings on record: 25 µM Aβ25-35; model cell viability 57.3%. The method, then:
The neuroprotective effect of compounds 3a, 3c, 3e, 3f, 3k, 3m, and 3n on Aβ25–35-induced PC12 cells injury were evaluated using CCK-8 assay. […] Furthermore, as shown in Figure 12(B), when PC12 cells were exposed to 25 µM Aβ25-35, the cell viability sharply declined to 57.3% (p < 0.01) compared with untreated group.
• Preparation of Aβ25-35 aggregation. Aβ25-35 was purchased from sigma. 1 mg Aβ25-35 was dissolved in 943 µL of sterilised deionised water to obtain 1 mM stock solution, aliquoted, –20 °C preservation. Removing the appropriate volume in a 48-well plate and incubated in a 37 °C incubator for two days to allow its ageing to accumulate and produce neurotoxicity. After aggregation was completed, the solution was diluted with PBS to get 25 µM solution of Aβ25-35 aggregation. • Neuroprotective effects of compounds on Aβ25-35-induced PC12 cells injury
The PC12 cells during the logarithmic growth phase were digested and centrifuged with pancreatic enzyme solution, the cells were resuspended by adding the prepared media solution, and piped evenly with a pipette to seed in a 96-well cell culture plate (cell concentration adjusted to 2.0 × 10^4 cell·mL^−1). Each well was added 100 µL complete medium was added to each well and incubated at 37 °C and 5% CO2 for 24 h.
After incubation for 24 h, PC12 cells were divided into blank group, control group, Aβ25-35 model group and tested compounds group (5, 10, 20 µM). Then the original medium was discarded, and 100 µL new complete medium were added to PC12 cells, and the tested compounds group was added to 100 µL complete medium containing different concentrations (5, 10, and 20 µM) of tested compounds, incubated for 2 h at 37 °C, 5% CO2 conditions. After incubation for 2 h, 10 µL Aβ25-35 solution was added to the tested compounds groups and model group (the final concentration of Aβ25-35 was 25 µM), and incubated for 24 h at 37 °C, 5% CO2 conditions, 10 µL CCK-8 was added to each well and further incubated for 1 h at 37 °C and 5% CO2. Finally, the OD value was measured at 450 nm using a microplate reader, and each concentration set three wells. The cell survival rate (%) was determined according to the following formula: cell viability (%) = {(ODdrug−ODblank)}/{(ODcontrol−ODblank)}.

Data set [2] in a line: Stability in artificial gastrointestinal fluids. It is filed as in vitro ADME. The settings on record: 8 h incubation. The protocol: Compound 3f was selected to investigate the stabilities by artificial gastrointestinal conditions and (human and rat) liver microsomes.
• The artificial gastrointestinal fluids were prepared on the basis of the standard method described in China Pharmacopoeia (version 2015). The artificial gastric fluid consisted of HCl (0.045 mol/L) and pepsin (10 g/L), while the artificial intestinal fluid consisted of trypsin (10 g/L) and KH2PO4 (6.8 g/L), and the pH was adjusted to 6.8 with 0.1 mol/L NaOH. The blank gastric fluid and blank intestinal fluid was similar as described above without pepsin and trypsin. Compound 3f (1 mg/mL, n = 3) was incubated with artificial gastric fluid、blank gastric fluid 、artificial intestinal fluid and blank intestinal fluid at 37 ◦C, and 600 µL methanol was then added into the reagent to stop reaction at time of 0, 0.5, 1, 2, 3, 4, and 8 h. […] The data were processed by GraphPad Prism 8.0 software.
UPLC-MS/MS method: Targeted analytes were separated using a Agilent xbridge aq C18 column (4.6 mm × 250 mm, 5 µm, USA) at a flow rate of 0.4 ml/min. The mobile phase consisted of solvent A (deionised water with 0.1% formic acid) and solvent B (acetonitrile with 0.1% formic acid). The gradient elution program was as follows: 0–0.5 min (10% B); 0.5–2.5 min (10–98% B); 2.5–3.5 min (98% B); 3.5–3.6 min ([…]); 3.6–5.0 min (10% B). The autosampler temperature was maintained at 12 °C and the injection volume was set at 1 µL.
The mass spectrometer was operated in positive ion mode through multiple-reaction monitoring. The parameters of the mass spectrometer were as follows: capillary ionisation voltage of 3500 V: source gas temperature of 300 °C gas flow of 11 L/min.

Another data set relates to AChE. The experiment in a line: AChE activity in AlCl3-induced zebrafish AD model tissue. The format is in vivo.
Data set [3] in a line: Rat liver microsomes stability. The settings on record: after 60 min incubation. (Liver microsomes are vesicles of endoplasmic reticulum, rich in cytochrome P450 enzymes.)
Procedure: • 2.The stability of 3f was performed in rat liver microsomes. The rat liver microsomes was purchased from Dalian Meilun Biotechnology Co., Ltd, DaLian, China. […] Solution B (25 mL) contained G-6-P-DH (1000 U), Na-Citrate2 (200 mg), and H2O was used as a solvent. NADPH solution (1 mM) was composed by solution A and solution B (v/v = 5:1). […] The reaction was started by the addition of NADPH. The total mixture (200 µL) was incubated at 37 °C. Cold methanol (600 µL) was added at 0, 5, 15, 20, 30, 45 and 60 min, respectively, to stop the reaction. Samples were centrifuged at 13000 rpm for 10 min at 4 °C, and 100 µL supernatant was removed and analysed by UPLC-MS/MS. The stability results were presented as % remaining vs. time. The experiments were conducted in triplicate. • 3.The stability of 3f was performed in rat plasma. […] The supernatant was dried and redissolved in 100 µL methanol. After centrifugation, the supernatant was analysed by UPLC-MS/MS. The stability data were presented as remaining percentage vs time.

Broadly, the IC50 is the midpoint of a concentration-inhibition curve.

T2 sequence (P22303 32-617 isoform P22303-2 limits assumed): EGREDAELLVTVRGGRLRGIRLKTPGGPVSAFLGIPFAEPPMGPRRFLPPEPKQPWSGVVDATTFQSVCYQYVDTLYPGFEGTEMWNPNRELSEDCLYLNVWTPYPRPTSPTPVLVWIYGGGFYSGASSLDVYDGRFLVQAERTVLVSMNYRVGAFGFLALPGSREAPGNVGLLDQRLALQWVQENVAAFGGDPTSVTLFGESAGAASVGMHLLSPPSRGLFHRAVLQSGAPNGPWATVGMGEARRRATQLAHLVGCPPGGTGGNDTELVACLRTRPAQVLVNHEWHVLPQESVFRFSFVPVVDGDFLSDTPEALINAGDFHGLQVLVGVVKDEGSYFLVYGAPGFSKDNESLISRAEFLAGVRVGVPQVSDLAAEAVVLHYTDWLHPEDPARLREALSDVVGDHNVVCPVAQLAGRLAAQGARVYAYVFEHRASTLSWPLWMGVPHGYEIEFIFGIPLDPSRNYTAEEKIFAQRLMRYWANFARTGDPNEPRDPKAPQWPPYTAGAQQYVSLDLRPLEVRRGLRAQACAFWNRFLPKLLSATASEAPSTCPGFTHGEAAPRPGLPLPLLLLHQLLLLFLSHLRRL
T1 sequence (O42275 24-633): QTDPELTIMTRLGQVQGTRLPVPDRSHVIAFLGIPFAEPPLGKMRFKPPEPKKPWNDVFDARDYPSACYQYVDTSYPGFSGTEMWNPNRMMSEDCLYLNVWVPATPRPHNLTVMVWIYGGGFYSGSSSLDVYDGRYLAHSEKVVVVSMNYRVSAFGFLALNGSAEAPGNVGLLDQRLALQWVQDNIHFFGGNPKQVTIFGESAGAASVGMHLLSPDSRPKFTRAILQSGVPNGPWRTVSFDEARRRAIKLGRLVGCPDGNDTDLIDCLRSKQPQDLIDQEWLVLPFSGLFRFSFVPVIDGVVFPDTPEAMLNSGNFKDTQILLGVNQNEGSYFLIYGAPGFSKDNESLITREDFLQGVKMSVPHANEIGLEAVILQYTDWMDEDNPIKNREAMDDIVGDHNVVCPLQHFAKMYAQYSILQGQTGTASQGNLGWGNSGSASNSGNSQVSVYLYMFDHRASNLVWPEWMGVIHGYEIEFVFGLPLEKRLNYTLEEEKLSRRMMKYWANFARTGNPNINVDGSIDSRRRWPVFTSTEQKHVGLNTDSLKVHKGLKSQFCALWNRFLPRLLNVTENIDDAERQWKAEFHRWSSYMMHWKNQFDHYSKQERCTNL

Consider `CCN(CC)C(=O)Oc1cccc2ncccc12` [Compound 3f, Quinolin-5-yl diethylcarbamate], for which the IC50 at eeAChE was determined as 1.3 ± 0.02 µM. Besides, in the data set on BV-2 cells, the “cell viability of BV-2 cells” value is listed as “did not show obvious change”. The “reversibility of hAChE inhibition” value on hAChE is given as “reversible hAChE inhibitor”. The same compound displayed a hAChE activity restored at hAChE (0.1 × IC50, at 120 min) of 94.7%. Also, in data set [1], the “neuroprotective effect on Aβ25-35-induced PC12 cells injury” value is “remarkable neuroprotective effects at 5 and 10 µM”. Also, the remaining amount was determined as 99.2% in data set [2] (artificial gastric fluid), 107.7% in data set [2] (artificial intestinal fluid), 102.6% in data set [2] (blank gastric fluid) and 103.4% in data set [2] (blank intestinal fluid). In addition, the AChE activity with AChE (0.08 µM) is 98095.7 nmol/min/g; with AChE (0.16 µM), 64663.2 nmol/min/g; with AChE (0.32 µM) it was 102433.6 nmol/min/g. Also, the “remaining amount in rat liver microsomes” value in data set [3] was determined as 104.4%.
